In US20100249172A1, “9-CHLORO NOSCAPINE AND ITS USE IN TREATING CANCERS, INCLUDING DRUG-RESISTANT CANCERS” (EMORY UNIVERSITY, priority 2007, published 2010):

Assays:
MCF-7 cells = experiment: Immunofluorescence confocal microscopy of spindle architecture and nuclear morphology; type: cell-based, human; conditions: 25 μM, 0, 12, 24, 48 and 72 hours
Procedure: Cells adhered to poly-L-lysine coated coverslips were treated with noscapine, 9-chloro-noscapine, and other halogenated analogs (9-F-nos, 9-Br-nos, and 9-I-nos) for 0, 12, 24, 48 and 72 hours. After treatment, cells were fixed with cold (−20° C.) methanol for 5 min and then washed with phosphate-buffered saline (PBS) for 5 min. Non-specific sites were blocked by incubating with 100 μl of 2% BSA in PBS at 37° C. for 15 min. A mouse monoclonal antibody against α-tubulin (DM1A, Sigma) was diluted 1:500 in 2% BSA/PBS (100 μl) and incubated with the coverslips for 2 hours at 37° C. Cells were then washed with 2% BSA/PBS for 10 min at room temperature before incubating with a 1:200 dilution of a fluorescein-isothiocyanate (FITC)-labeled goat anti-mouse IgG antibody (Jackson ImmunoResearch, Inc., West Grove, Pa.) at 37° C. for 1 hour. Coverslips were then rinsed with 2% BSA/PBS for 10 min and incubated with propidium iodide (0.5 μg/ml) for 15 min at room temperature before they were mounted with Aquamount (Lerner Laboratories, Pittsburgh, Pa.) containing 0.01% 1,4-diazobicyclo(2,2,2)octane (DABCO, Sigma). […]
To test whether 9-chloro-noscapine induces spindle abnormalities prior to apoptotic cell death indicated by nuclear fragmentation of dying cells, the spindle architecture and nuclear morphology of MCF-7 cells treated with 9-chloronoscapine was evaluated using confocal microscopy (FIG. 4). […]

[1] = system: 1A9/PTX22 (paclitaxel-resistant variant); experiment: Inhibition of cell proliferation; type: cell-based
tubulin = target: T1, tubulin; experiment: Tubulin binding assay (fluorescence titration / quenching); design: species or system mammalian; conditions: 2 μM tubulin, 45 min at 37° C., pH 6.8; mean±SD, four experiments; read-out: dissociation constant (Kd) for binding to tubulin
T1 construct: other: 2 μM tubulin, 45 min at 37° C., pH 6.8; mean±SD, four experim
Procedure: Cell culture reagents were obtained from Mediatech, Cellgro. CEM, a human lymphoblastoid line was provided by Dr. William T. Beck (Cancer Center, University of Illinois at Chicago). MCF-7 cells were maintained in Dulbecco's Modification of Eagle's Medium 1× (DMEM) with 4.5 g/L glucose and L-glutamine (Mediatech, Cellgro) supplemented with 10% fetal bovine serum (Invitrogen, Carlsbad, Calif.) and 1% penicillin/streptomycin (Mediatech, Cellgro). MDA-MB-231 and CEM cells were grown in RPMI-1640 medium supplemented with 10% fetal bovine serum, and 1% penicillin/streptomycin. […]
Fluorescence titration for determining the tubulin binding parameters was performed as described previously. […] The relative intrinsic fluorescence intensity of tubulin was then monitored in a JASCO FP-6500 spectrofluorometer (JASCO, Tokyo, Japan) using a cuvette of 0.3-cm path length, and the excitation wavelength was 295 nm. The fluorescence emission intensity of noscapine and its derivatives at this excitation wavelength was negligible. A 0.3-cm path-length cuvette was used to minimize the inner filter effects caused by the absorbance of these agents at higher concentration ranges. In addition, the inner filter effects were corrected using a formula F corrected ═F observed•antilog [(Aex+Aem)/2], where Aex is the absorbance at the excitation wavelength and Aem is the absorbance at the emission wavelength. […]

[2] = system: normal human fibroblast cells; experiment: Cell cycle progression in normal cells; type: cell-based
[3] = system: CEM/VLB100 (vinblastine-resistant variant); experiment: Inhibition of cell proliferation; type: cell-based, human
[4] = system: 1A9 (ovarian cancer cells); experiment: Inhibition of cell proliferation; type: cell-based
[5] = system: CEM/VM-1-5 (teniposide-resistant variant); experiment: Inhibition of cell proliferation; type: cell-based, human

## COc1ccc2c(c1OC)C(=O)O[C@@H]2[C@H]1c2c(c(Cl)c3c(c2OC)OCO3)CCN1C [9-Cl-nos, (S)-3-((R)-9-chloro-4-methoxy-6-methyl-5,6,7,8-tetrahydro-[1,3]dioxolo[4,5-g]isoquinolin-5-yl)-6,7-dimethoxyisobenzofuran-1(3H)-one]
MCF-7 cells
  spindle abnormalities / mitotic arrest: mitotic arrest commencing as early as 12 hours, and maximizing at 24 hours
[1]
  inhibition of cell proliferation (in words): effectively inhibits cell proliferation
tubulin
  Kd: 40 ± 8 µM
[2]
  effect on cell cycle of normal cells: without affecting the cell cycle
[3]
  inhibition of cell proliferation (in words): effectively inhibits cell proliferation
[4]
  inhibition of cell proliferation (in words): effectively inhibits cell proliferation
[5]
  inhibition of cell proliferation (in words): effectively inhibits cell proliferation
